Melting point data for 62 compounds are collected here from a melting point compilation (Tetko et al.; mined from patent text by program, amines drawn as free bases though some values may be those of a salt).

The structures appear in SMILES notation.

`O=c1nc(N2CCCC(O)C2)sc2ncccc12` (configuration not stated) came in with a melting point of 208 to 211 °C.
As for `O=C(Cc1ccc2c(c1)CCC(NS(=O)(=O)c1cccs1)C2)Nc1ccc(C(=O)O)cc1` (configuration not stated), the figure is 250 to 252 °C; as for `COC(=O)CC[C@H](NC(=O)c1ccc(NCCCc2c(NC(C)=O)nc(NC(C)=O)[nH]c2=O)cc1)C(=O)OC`, 135 to 142 °C.
Turning to `COc1cc2ccc(CC(=O)O)cc2cc1OC`, the melting point was in the range of 115 to 117 °C.
In the case of `C#CCn1c(C(F)(F)F)c(C(O)C#C)c2ccccc21` (racemic), the melting point was 98 °C.
On to `O=C1OC(=O)c2cc3cc(Cl)ccc3cc21`, for which the melting point stood at 220 °C.
`O=c1ncn(Cc2ccc(Cl)cc2)c2cc(-c3ccc(OCc4ccccn4)cc3)sc12` came in with a melting point of 257 to 259 °C.
Turning to `COc1cccc(OCC(O)c2cccc(OCc3ccc4ccccc4n3)c2)c1` (configuration not stated), the melting point lay in the range of 103 to 105 °C.
The compound `CCCC(=O)NCC1Cc2cccc3cccc1c23` (configuration not stated) displayed a melting point of 111 °C.
The compound `CCCCOC(=O)C=C(C)C=CC=C(C)C=Cc1c(C)cc(C)c([N+](=O)[O-])c1C` showed a melting point of 205 to 206 °C.
The compound `C=CCOc1nc(SC)nc(NC(C)C)c1[N+](=O)[O-]` had a melting point of 51 to 54 °C.
With `Nc1cc(C2=NOC(c3cc(Cl)cc(Cl)c3)(C(F)(F)F)C2)ccc1-n1cncn1` (configuration not stated), the melting point fell in the range of 244 to 246 °C.
As to `O=C1N(Cc2cn(C(c3ccccc3)(c3ccccc3)c3ccccc3)cn2)CCN1c1cccc(Cl)c1`, the melting point lay in the range of 162 to 166 °C.
The compound `COC(=O)C(C)(C)c1ccc(Cl)c([N+](=O)[O-])c1` yielded a melting point of 160 to 161 °C.
`CCc1cnc2c(NC(=O)c3c(Cl)cccc3Cl)cccc2c1C(C)=O` returned a melting point of 194 to 195 °C.
On to `Cc1nn(C)c2c1c1oc(=O)c(Br)c(O)c1c(=O)n2Cc1ccc(F)cc1`, for which the melting point was 262 to 264 °C.
In turn, `O=C(OCc1ccccc1)c1cc2ccccc2[nH]1` showed a melting point of 136 °C.
As to `CCCCOc1cc(/C=C(\OCC)C(=O)O)ccc1OCCc1ccc(OS(=O)(=O)CCCC)cc1`, the melting point was 96 °C.
Take `O=C(Nc1ccc(C(=O)N2C[C@@H]3CCCN3C(=S)c3ccccc32)cc1)c1ccccc1-c1ccccc1`: the melting point was in the range of 234 to 236 °C.
`CN1Cc2cc(Cl)ccc2C(=O)c2cc(CC(=O)O)ccc21` registered a melting point of 191 to 194 °C.
In turn, `O=C(c1ccc(-c2ccccc2)cc1)N1CCCCc2sccc21` gave a melting point of 164 to 166 °C.
`Cc1cccc2sc(-n3nc4c(c3O)-c3ccccc3CC4)nc12`: the melting point is 224 to 225 °C.
With `CS(=O)(=O)N(CCc1ccc(Cl)cc1)Cc1cccnc1`, the melting point lay in the range of 77 to 78 °C.
Take `CC(=O)Nc1cccc(CNC(=O)[C@H]2N(C(=O)[C@@H](O)[C@H](Cc3ccccc3)NC(=O)c3cccc(O)c3C)CSC2(C)C)c1`: the melting point lay within 145 to 147 °C.
`c1ccc(CCNc2nccc3ccccc23)cc1` registered a melting point of 110 to 112 °C.
In turn, `CS(=O)c1ccc(C2=C(c3cccc(F)c3)C(=O)C(C)(C)O2)cc1` (configuration not stated) returned a melting point of 143 to 144 °C.
As for `CNC(=S)C1(c2ccncc2)CCCCC1=O` (configuration not stated), the melting point lay in the range of 182 to 183 °C.
As for `CC(=O)Oc1cccc2c1C(=O)c1c(OC(C)=O)cc(C#N)cc1C2=O`, the figure is 218 to 220 °C; as for `O=C(O)CCS(=O)(=O)CCCl`, 138 to 139 °C; as for `COC(=O)C1(C(=O)OC)CCn2c(C(=O)c3ccccc3)cc(Br)c21`, 109 to 110 °C.
In the case of `O=C1C(Cl)=C(c2ccccc2)C(=O)N1Nc1ccccc1`, the melting point was 144 to 146 °C.
Regarding `COC(=O)[C@H](Cc1ccccc1)NC(=O)CCC#N`, the melting point lay within 71 to 72 °C.
Regarding `CC(=O)c1c(C)c(NC(=O)CC(C)(C)C)c(C)c2c1OCC2c1ccc(C(C)C)cc1` (configuration not stated), the melting point fell in the range of 176 to 177 °C.
As for `CCc1cc2c([nH]c1=O)C(=O)C=CC2=O`, the figure is 168 °C; as for `Cn1cc(C2=C(c3cn(CCCN=C=S)c4ccccc34)C(=O)NC2=O)c2ccccc21`, 219 to 221 °C.
On to `CS(=O)(=O)c1nccn1CC(=O)O`, for which the melting point lay in the range of 218 to 219 °C.
As to `OC1COC(n2c(Cl)nc3cc(Cl)c(Cl)cc32)C(O)C1O` (configuration not stated), the melting point worked out at 184 °C.
With `CC(=NNC(=N)N)c1sc(-c2ccccc2)nc1C`, the melting point lay within 195 to 196 °C.
`CC(C)NCC(O)COc1ccc(-c2oc3ccccc3c2C(=O)c2ccccc2)cc1` (configuration not stated) had a melting point of 53 to 59 °C.
Under `O=C(O)Cc1cnn(-c2ccc(Cl)cc2)c1-c1ccc(Cl)cc1` stands 195 to 196 °C.
Turning to `CSc1cc(NCc2nc3ccccc3o2)c(=O)[nH]c1C`, the melting point was 180 to 181 °C.
`NCc1ccc(-c2cnc(N3CCN(C4CC4)CC3)nc2)cc1` showed a melting point of 150 to 152 °C.
For the compound `Cn1nc(-c2cc(N)c(F)cc2F)c(Cl)c1C(F)(F)F`, the melting point came out at 82 °C.
As to `CCOC(=O)C1=C(C=NOc2ccc([N+](=O)[O-])cc2[N+](=O)[O-])NC(CF)=C(C(=O)OCC)C1c1cccc([N+](=O)[O-])c1` (configuration not stated), the melting point was 150 to 152 °C.
Take `CCN1CCCC1CNC(=O)c1cc(S(=O)(=O)CC)cc2c1OCCO2` (configuration not stated): the melting point lay within 111 to 122 °C.
Compound `COC(=O)Cc1ccc(Sc2ccccc2C(=O)N(C)C)c([N+](=O)[O-])c1` had a melting point of 124 to 125 °C.
For the compound `COc1ccc2c(c1)CCc1cn[nH]c1-2`, the melting point lay within 162 to 164 °C.
`N#CCN1CCC(NC(=O)c2cc(Cl)c(N)c3c2OCCC3)CC1`: the melting point was 194 °C.
Under `O=C1CC(c2cccc([N+](=O)[O-])c2)=Nc2ccc(C#Cc3ccccc3)cc2N1` stands 228 to 229 °C; under `COc1ccc(C2=NN(C3CCN(C(=O)c4cccnc4)CC3)C(=O)CC2)cc1OC`, 162 to 164 °C.
Compound `O=C1NC(=O)c2c(Sc3ccc([N+](=O)[O-])cc3)c(Sc3ccc([N+](=O)[O-])cc3)c(Sc3ccc([N+](=O)[O-])cc3)c(Sc3ccc([N+](=O)[O-])cc3)c21` showed a melting point of 297 to 301 °C.
For `CCOC(=O)c1cn(C)nc1Nc1ccc(C(F)(F)F)cc1N`, the melting point worked out at 162 °C.
In turn, `CCn1c(=O)c2nc(-c3ccc(/C=C/C(=O)O)cc3)[nH]c2n(CC)c1=O` yielded a melting point greater than 360 °C.
For `N=C(Nc1ccccc1)Nc1nc(-c2ccccc2)cs1`, the melting point was 179 to 180 °C.
`Nc1ncnc2c1c(-c1cc(O)cc(F)c1)nn2Cc1oc2ccccc2c(=O)c1-c1cccc(F)c1` came in with a melting point of 235 to 237 °C.
As to `CNC(=O)ON=C(C)SC(C)C(N)=O` (configuration not stated), the melting point lay in the range of 161 to 163 °C.
`O=C(Nc1ccc(OCCN2CCOCC2)c2ccccc12)c1cc(N2CCOCC2)ncn1` came in with a melting point of 50 to 51 °C.
The compound `COCCN(C)CCc1c(-c2ccc(N)cc2)sc2c1c(=O)n(-c1ccc3c(c1)OCO3)c(=O)n2Cc1c(F)cccc1F` returned a melting point of 200 to 202 °C.
Compound `CC1CCc2ccc3ccccc3c2C1=O` (configuration not stated) had a melting point of 61 to 63 °C.
In turn, `CCCC(C)C(=O)Oc1c(I)cc(I)cc1I` (configuration not stated) gave a melting point of 66 to 68 °C.
`CN(C)C(=O)CCCCCCCCCCCCO` gave a melting point of 69 to 71 °C.
Under `CC(Cl)(Cl)C(NC(=O)c1cc(Cl)cc(Cl)c1)NC(=NS(=O)(=O)C(F)(F)F)Nc1cccnc1` (configuration not stated) stands 213 to 215 °C.
